Consider 14 compounds from PubChem BioAssay (NCI).

Among the test systems are SW-620 colon; SNB-75 CNS; 786-0 renal; SF-295 CNS; HL-60(TB) leukemia; SK-OV-3 ovarian; NCI-H522 lung; SN12C renal; HOP-92 NSCLC; MCF7 breast.
What all share (assay): DTP human tumour cell line panel, 48 h

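Interpolation was linear, between the two tested concentrations surrounding the appropriate level; five concentrations were tested over 48 hours in 96-well plates. GI50 = concentration required for 50% inhibition of growth. TGI denotes the concentration required for complete inhibition of growth.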

One may read the TGI as the concentration at which net growth stops. A low value points to more potent growth arrest. Regarding `CCOC(=O)C(=O)Nc1ccc(Cl)c(C(F)(F)F)c1`, the TGI in the experiment with SW-620 colon, in the experiment on SNB-75 CNS, in the experiment on 786-0 renal, with SF-295 CNS, with HL-60(TB) leukemia and in the experiment on SK-OV-3 ovarian was > 100 µM each time. Further, the TGI in the experiment on NCI-H522 lung and in the experiment with SN12C renal was > 100 µM in each case.
Take `COc1ccc2c(c1)CCCC1C3=NCCC3(C)CSC21` (stereo unspecified): the TGI is > 100 µM in the experiment with SW-620 colon; > 100 µM in the experiment with SNB-75 CNS; > 100 µM with 786-0 renal; > 100 µM in the experiment with SF-295 CNS; 44.7 µM in the experiment with HL-60(TB) leukemia; > 100 µM in the experiment with SK-OV-3 ovarian. The total growth inhibition concentration (TGI) with NCI-H522 lung and with SN12C renal was > 100 µM each time.
As for `CCOC(=O)c1cnc2cc3cccccc3n2c1=O`, the TGI in the experiment on SW-620 colon, with SNB-75 CNS, in the experiment with 786-0 renal, with SF-295 CNS, in the experiment on HL-60(TB) leukemia and in the experiment on SN12C renal was > 100 µM each time.
As for `O=C(O)c1ccc(C2C3C=CC(C3)C2[N+](=O)[O-])cc1` (stereo unspecified), the concentration for total growth inhibition (TGI) in the experiment on SW-620 colon, in the experiment on SNB-75 CNS, with 786-0 renal, in the experiment with SF-295 CNS, in the experiment with HL-60(TB) leukemia and in the experiment on SK-OV-3 ovarian was > 100 µM throughout. Moreover, the TGI with NCI-H522 lung and in the experiment on SN12C renal was > 100 µM each time.
For orientation: GI50 means the concentration giving 50% growth inhibition. Turning to `CO/N=C(/COc1c(-c2ccccc2)oc2ccccc2c1=O)c1ccc(F)cc1`, the GI50 with SW-620 colon was > 100 µM; in the experiment with SNB-75 CNS it was 28 µM; in the experiment with 786-0 renal, 25.1 µM; with SF-295 CNS it was 41.1 µM; in the experiment with HL-60(TB) leukemia it was > 100 µM; with SK-OV-3 ovarian, 62.4 µM. Besides, the GI50 with NCI-H522 lung is 36.4 µM; in the experiment on SN12C renal it was 35.1 µM. For the same compound, the TGI in the experiment on SW-620 colon is > 100 µM; with SNB-75 CNS, 81.1 µM; in the experiment with 786-0 renal, 64 µM; in the experiment on SF-295 CNS it was > 100 µM; in the experiment on HL-60(TB) leukemia it was > 100 µM; with SK-OV-3 ovarian, > 100 µM. Moreover, the TGI in the experiment on NCI-H522 lung and in the experiment with SN12C renal was > 100 µM each time.
With `Clc1cc(Cl)cc(Nc2nc3ccccc3nc2-c2cccs2)c1`, the TGI in the experiment with SW-620 colon was > 100 µM; in the experiment with SNB-75 CNS it was > 100 µM; in the experiment on 786-0 renal it was 31.7 µM; with SF-295 CNS it was 45.8 µM; in the experiment on HOP-92 NSCLC it was 38.1 µM; in the experiment on HL-60(TB) leukemia, > 100 µM. Further, the TGI with SK-OV-3 ovarian was 71.1 µM; with SN12C renal, > 100 µM.
On to `CC1=CC2CC(C)C1(C)CCc1ccoc12` (stereo unspecified), for which the TGI with SW-620 colon, in the experiment on SNB-75 CNS, in the experiment on 786-0 renal, in the experiment on SF-295 CNS, in the experiment with HOP-92 NSCLC and in the experiment with HL-60(TB) leukemia was > 100 µM throughout. Also, the TGI in the experiment on SK-OV-3 ovarian and in the experiment on SN12C renal was > 100 µM each time.
With `Cc1cc2c(cc1Br)C1(C)CCC(C)C1(C)O2` (stereo unspecified), the TGI in the experiment on SW-620 colon was > 100 µM; with SNB-75 CNS, > 100 µM; in the experiment on 786-0 renal it was 66.8 µM; in the experiment on SF-295 CNS, 54.6 µM; with HOP-92 NSCLC, 53.7 µM; in the experiment with HL-60(TB) leukemia, 34.1 µM. The TGI in the experiment on SK-OV-3 ovarian was > 100 µM; in the experiment on SN12C renal, 80.9 µM.
For the compound `COc1ccc(C(O)/C(=C/n2ccnc2)c2ccccc2)cc1OC` (stereo unspecified), the TGI in the experiment with SW-620 colon, in the experiment on SNB-75 CNS, in the experiment on 786-0 renal, in the experiment on SF-295 CNS, in the experiment on HOP-92 NSCLC and with HL-60(TB) leukemia was > 100 µM throughout. Moreover, the TGI in the experiment on SK-OV-3 ovarian and in the experiment with SN12C renal was > 100 µM each time.
`CCOC(=O)[C@H]1Nc2ccc(Cl)cc2[C@H]2c3ccccc3O[C@H]21`: the TGI with SW-620 colon, with SNB-75 CNS, with 786-0 renal, in the experiment with SF-295 CNS, in the experiment with NCI-H522 lung and in the experiment with SN12C renal was > 100 µM in each case.
Consider `C=C1C(=O)O[C@H]2C[C@@H]1CCC1(C)OC1CC/C(C)=C/CC[C@H]2C` (stereo partly specified), for which the GI50 is 19.2 µM with SW-620 colon; 18.4 µM in the experiment on 786-0 renal; 12.3 µM in the experiment with SF-295 CNS; 19.3 µM with SK-OV-3 ovarian; 37.9 µM with NCI-H522 lung; 18 µM in the experiment with MCF7 breast. Besides, the GI50 with SN12C renal is 19 µM. In addition, the TGI was 36.9 µM in the experiment with SW-620 colon; 33.1 µM with 786-0 renal; 26.3 µM in the experiment with SF-295 CNS; 37.1 µM in the experiment with SK-OV-3 ovarian; > 100 µM with NCI-H522 lung; 36.6 µM in the experiment on MCF7 breast. In the experiment with SN12C renal, this compound gave a TGI of 35.5 µM.
As to `Cc1ccc2[nH]c(C(=O)NN3C(=O)C(C)SC34CCCCC4C)c(-c3ccccc3)c2c1` (stereo unspecified), the GI50 in the experiment on SW-620 colon is 19.8 µM; in the experiment with SNB-75 CNS, 21.2 µM; in the experiment on 786-0 renal it was 22.2 µM; in the experiment on SF-295 CNS it was 17.8 µM; in the experiment on HOP-92 NSCLC it was 19.5 µM; in the experiment with SK-OV-3 ovarian, 37.9 µM. The figures for the GI50 in the experiment on NCI-H522 lung, with MCF7 breast and in the experiment with SN12C renal were 2.4 µM, 23.1 µM and 15.7 µM, respectively. For the same compound, the TGI in the experiment on SW-620 colon is 53.2 µM; in the experiment on SNB-75 CNS, 41.7 µM; in the experiment with 786-0 renal it was 50.9 µM; in the experiment on SF-295 CNS, 35.5 µM; in the experiment with HOP-92 NSCLC, 38.5 µM; in the experiment with SK-OV-3 ovarian, > 100 µM. For the same compound, the TGI with NCI-H522 lung is 16.7 µM; with MCF7 breast it was > 100 µM; with SN12C renal, 31.6 µM.
As for `Cn1c(=O)oc2cc(C3CCC(=O)N3Cc3ccc(Cl)cc3)ccc21` (stereo unspecified), the TGI in the experiment with SW-620 colon, in the experiment with SNB-75 CNS, with 786-0 renal, in the experiment on SF-295 CNS, with HL-60(TB) leukemia and in the experiment on SK-OV-3 ovarian was > 100 µM throughout. The TGI in the experiment on NCI-H522 lung and in the experiment with SN12C renal was > 100 µM throughout.
With `COc1cc2c(c(OC)c1OC)-c1ccc(SC)c(=O)cc1C(CC(=O)Oc1cccc(C#N)c1)C2` (stereo unspecified), the TGI is > 100 µM with SW-620 colon; > 100 µM with 786-0 renal; > 100 µM in the experiment with SF-295 CNS; > 100 µM in the experiment on HOP-92 NSCLC; 2.35 µM in the experiment with HL-60(TB) leukemia; > 100 µM in the experiment with SK-OV-3 ovarian. Also, the TGI in the experiment with SN12C renal is > 77.7 µM.
